Assay results from PMC8536575, “Acute effects of the imidacloprid metabolite desnitro-imidacloprid on human nACh receptors relevant for neuronal signaling” (Archives of Toxicology, 2021).

Legend:
nAChRs on SH-SY5Y cells = experiment: Desensitization of the nicotine response of SH-SY5Y cells; type: cell-based, human; conditions: pretreatment 20 min, nicotine 10 µM, PNU 10 µM
Protocol: To measure acute changes in the average [Ca^2+]i of a population, SH-SY5Y cells were examined in the 96-well plate fluorescence reader FlexStation II (Molecular Devices) using the fluorophore Fura-2AM. SH-SY5Y (35,000 cells/well; 109,375 cells/cm^2) were seeded in maintenance culture medium in black 96-well plates with clear bottom (Corning, #3603). 24 h after seeding, maintenance medium was replaced with differentiation medium. […] The fluorescence was assessed at 37 °C in the fluorescence plate reader (FlexStation II; Molecular Devices) at two different excitation wavelengths, 340 nm for Ca^2+-bound Fura-2 and 380 nm for free Fura-2, and at 510 nm emission, every 3.1 s using bottom read settings. After 26–29 s of initial baseline recording of the fluorescence intensity, 10 µl of the compound dilution (10 times higher than the final concentration to the cells) was transferred automatically by the FlexStation II (“Flex mode”) to the cell plate wells (five wells per concentration) and the fluorescence intensity was monitored for another 150 s. The ratio of fluorescence intensity at 340/380 nm was determined and the mean values from the baseline recording before the addition of test compounds was set to zero. The acute change in the Ca^2+ influx after the addition of the compounds was quantified as the area under the curve (AUC) using the SoftMax Pro 4.8 software (Molecular Devices). […]

human α4β2 (LS) nAChR = target: T1, human α4β2 (LS) nAChR (Homo sapiens, UniProt P17787+P43681); experiment: Two-electrode voltage-clamp recordings, Xenopus laevis oocytes expressing human α4β2 (LS) nAChR; type: cell-based
T1 construct: expressed in transfected cells; host or cells: Xenopus laevis oocytes, mRNA injection, 10 ng α4 and 1 ng β2
T1 sequence (P43681 27-627): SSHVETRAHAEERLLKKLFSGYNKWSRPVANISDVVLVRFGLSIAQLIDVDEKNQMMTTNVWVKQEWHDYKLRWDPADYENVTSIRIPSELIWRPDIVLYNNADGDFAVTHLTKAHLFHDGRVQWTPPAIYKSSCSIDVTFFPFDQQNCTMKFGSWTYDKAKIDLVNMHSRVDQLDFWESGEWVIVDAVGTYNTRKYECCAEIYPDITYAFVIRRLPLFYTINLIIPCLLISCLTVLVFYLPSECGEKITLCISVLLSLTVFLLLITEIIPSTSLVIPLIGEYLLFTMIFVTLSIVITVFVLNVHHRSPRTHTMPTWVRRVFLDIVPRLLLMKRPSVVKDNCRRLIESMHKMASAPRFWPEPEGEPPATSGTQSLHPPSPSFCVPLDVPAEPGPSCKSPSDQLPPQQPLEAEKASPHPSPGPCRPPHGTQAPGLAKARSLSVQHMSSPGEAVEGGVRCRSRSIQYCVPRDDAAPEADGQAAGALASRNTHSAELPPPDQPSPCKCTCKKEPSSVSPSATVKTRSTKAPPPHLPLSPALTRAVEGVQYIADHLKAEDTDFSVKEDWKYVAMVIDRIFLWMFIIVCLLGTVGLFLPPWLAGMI
T1 sequence (P17787 26-502): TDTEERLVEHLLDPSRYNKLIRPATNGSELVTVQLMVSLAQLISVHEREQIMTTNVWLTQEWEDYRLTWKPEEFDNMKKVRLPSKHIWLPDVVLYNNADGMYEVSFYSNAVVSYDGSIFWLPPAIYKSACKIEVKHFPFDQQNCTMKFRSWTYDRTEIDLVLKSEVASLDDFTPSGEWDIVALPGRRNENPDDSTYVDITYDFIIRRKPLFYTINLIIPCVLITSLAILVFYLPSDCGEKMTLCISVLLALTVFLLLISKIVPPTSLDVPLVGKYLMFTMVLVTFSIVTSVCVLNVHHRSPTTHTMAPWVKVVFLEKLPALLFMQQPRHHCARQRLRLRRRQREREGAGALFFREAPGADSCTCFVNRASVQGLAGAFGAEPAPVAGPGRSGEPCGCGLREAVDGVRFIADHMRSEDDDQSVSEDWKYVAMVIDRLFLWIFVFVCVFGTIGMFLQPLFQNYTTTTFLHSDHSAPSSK
Description: The human α7 nAChR subunit was cloned in the pCDNA3.1 vector.
For the generation of the mRNA for injection, the plasmid DNAs of α3, α4, β2, and β4 were linearized with the NotI restriction endonuclease (New England Biolabs) and the plasmid DNA of α7 was linearized with the XbaI restriction endonuclease (New England Biolabs). The mRNAs of α3, α4, β2, and β4 were generated by in vitro transcription using the mMESSAGE mMACHINE SP6 Transcription Kit (Invitrogen). For the generation of α7 mRNA, the mMESSAGE mMACHINE T7 Transcription Kit (Invitrogen) was used. For the separation of the DNA and mRNA, a phenol–chloroform extraction (Chomczynski and Sacchi [2006]) was performed. The mRNA was then obtained by ethanol precipitation from the aqueous phase; for quantification, the BioPhotometer (Eppendorf) was used.
The recordings of human α7, α3β4, α4β2, and α4β4 nAChRs expressed in Xenopus laevis oocytes (EcoCyte Bioscience) were performed in two-electrode voltage-clamp mode using the Roboocyte2 system and the corresponding software (version 1.4.1; Multi Channel Systems MCS). Prior to the recordings, the oocytes were maintained at 19 °C in modified Barth’s solution containing [mM]: 88 NaCl, 1 KCl, 0.33 Ca(NO3)2, 0.82 MgSO4, 2.4 NaHCO3, 0.41 CaCl2, 5 Tris, 100 U/ml penicillin, 100 µg/ml streptomycin, pH 7.4.
To express human α7 nAChR, we injected 50 nl of mRNA solution (30 ng mRNA) per oocyte, using the Roboinject and the corresponding software (version 1.2.1; Multi Channel Systems MCS). […]
The baseline correction of voltage-clamp oocyte recordings was performed with the Roboocyte2 + software (version 1.4.3; Multi Channel Systems MCS, Germany). The maximal current influx and further analysis were executed in scripts written in R. In the antagonist experiments with oocytes, the maximal inward current was determined for the last response of each period (control, three antagonist concentrations, and washout).

[1] = tested on: Xenopus laevis oocytes without additional receptor expression; experiment: Control recordings in oocytes without additional receptor expression; type: cell-based; conditions: DN-IMI 30 µM, injection of water without mRNA, n = 5
Protocol: First, we focused our experiments on the α4β2 receptor, which can assemble in two different stoichiometries. […] For control purposes, we applied DN-IMI (30 µM) to Xenopus laevis oocytes without additional receptor expression (injection of water without mRNA).

[2] = Blood/plasma ratio and free fraction (PBTK input parameters); type: in vitro ADME
[3] = monoprotic base; average of values; ref CHEMBL and ACD; cited from earlier work

For `NC1=NCCN1Cc1ccc(Cl)nc1` [DN-IMI, desnitro-imidacloprid], which “effect of pretreatment on the response to nicotine in SH-SY5Y” value (nAChRs on SH-SY5Y cells) is on record?
The value was “reduced/abolished the response to nicotine in the submicromolar range”.

And the estimated maximum (human α4β2 (LS) nAChR; normalized to nicotine (100 µM))?
Its estimated maximum is ~ 1.22.

And the EC50 (human α4β2 (LS) nAChR; read-out: relative pEC50 (inward current amplitude) (converted))?
The EC50 was 5.01 µM.

What about the “current responses in oocytes without receptor expression” value [1] of the same molecule?
Its value is “did not detect any current responses”.

And the blood plasma ratio ([2]; blood and plasma, read-out: Blood/plasma ration [B/P])?
The blood plasma ratio was 0.759.

What about the fraction unbound ([2]; plasma, read-out: Free fraction [fu]) of the same molecule?
Its fraction unbound is 0.841.

And the pKa [3]?
Its pKa is 9.6.
